Bounds are passed on as bounds.

For this assay, the target named is T1, human TGR5 (Homo sapiens, UniProt Q8TDU6).
T1 construct: expressed in transfected cells; host or cells: HEK293
T1 sequence (Q8TDU6 1-330): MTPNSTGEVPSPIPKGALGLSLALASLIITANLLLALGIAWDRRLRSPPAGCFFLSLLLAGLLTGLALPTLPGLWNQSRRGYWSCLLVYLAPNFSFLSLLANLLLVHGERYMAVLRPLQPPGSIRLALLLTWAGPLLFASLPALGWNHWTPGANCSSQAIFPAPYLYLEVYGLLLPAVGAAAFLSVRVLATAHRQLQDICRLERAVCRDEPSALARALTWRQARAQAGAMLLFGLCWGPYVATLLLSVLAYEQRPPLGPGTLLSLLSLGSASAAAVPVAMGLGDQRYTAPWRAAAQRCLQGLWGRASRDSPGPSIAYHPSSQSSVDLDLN
Kind of assay: Cell-based TGR5 assay (cAMP generation, HTRF). Particulars: HEK293 cells stably transfected with human TGR5; cAMP by HTRF; 30 minutes at 37° C.; read-out: pEC50 Human TGR5 (converted). Put shortly: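 Read-out was HTRF detection of cAMP, converted to concentration via a standard curve and fitted (3-parameter logistic) for pEC50 and maximal response. Agonist stimulation used HEK293 cells stably transfected with human TGR5, incubated 30 min at 37° C in IBMX-containing buffer at 0.05 nM to 10 μM compound.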
Consider `CSc1ccccc1-c1ccncc1C1(OCc2cc(Cl)ccc2Cl)CC1` [Compound I-739, 3-(1-((2,5-dichlorobenzyl)oxy)cyclopropyl)-4-(2-(methylthio)phenyl)pyridine], for which the EC50 is 126 to 1000 nM. Take `CC(C)(OCc1cc(Cl)ccc1Cl)c1cnccc1-c1ccccc1OC1CC1` [Compound I-740, 4-(2-cyclopropoxyphenyl)-3-(2-((2,5-dichlorobenzyl)oxy)propan-2-yl)pyridine]: the EC50 is less than 100 nM.

`Clc1ccc(Cl)c(COC2(c3cnccc3-c3ccccc3OC3CC3)CCC2)c1` [Compound I-741, 4-(2-cyclopropoxyphenyl)-3-(1-((2,5-dichlorobenzyl)oxy)cyclobutyl)pyridine]: the EC50 was less than 100 nM. With `Clc1ccc(Cl)c(COC2(c3cnccc3-c3ccccc3OC3CC3)CCCC2)c1` [Compound I-742, 4-(2-cyclopropoxyphenyl)-3-(1-((2,5-dichlorobenzyl)oxy)cyclopentyl)pyridine] the figure was 126 to 1000 nM; with `Clc1ccc(Cl)c(COC2(c3cnccc3-c3ccccc3OC3CC3)CCOC2)c1` (stereo not shown) [Compound I-743, 4-(2-cyclopropoxyphenyl)-3-(3-((2,5-dichlorobenzyl)oxy)tetrahydrofuran-3-yl)pyridine], less than 100 nM; with `CC(C)N(CCCCNC(=O)N[C@@H](CO)[C@@H](O)[C@H](O)[C@H](O)CO)S(=O)(=O)c1ccc(Cl)c(CNC2(c3cnccc3-c3ccccc3OC3CC3)CC2)c1` [Compound I-744, 4-chloro-3-(((1-(4-(2-cyclopropoxyphenyl)pyridin-3-yl)cyclopropyl)amino)methyl)-N-isopropyl-N-(4-(3-((2S,3R,4S,5R)-1,3,4,5,6-pentahydroxyhexan-2-yl)ureido)butyl)benzenesulfonamide], less than 100 nM. With `CC(OCc1cc(Cl)ccc1Cl)c1cnccc1-c1ccccc1OC1CC1` (stereo not shown) [Compound I-745, 4-(2-cyclopropoxyphenyl)-3-(1-((2,5-dichlorobenzyl)oxy)ethyl)pyridine] the figure was 126 to 1000 nM; with `CC(C)N(CCCCNC(=O)N[C@@H](CO)[C@@H](O)[C@H](O)[C@H](O)CO)S(=O)(=O)c1ccc(Cl)c(COC2(c3cnccc3-c3ccccc3OC3CC3)CCC2)c1` [Compound I-746, 4-chloro-3-((1-(4-(2-cyclopropoxyphenyl)pyridin-3-yl)cyclobutoxy)methyl)-N-isopropyl-N-(4-(3-((2S,3R,4S,5R)-1,3,4,5,6-pentahydroxyhexan-2-yl)ureido)butyl)benzenesulfonamide], less than 100 nM; with `CC(C)N(CCCCNC(=O)NC[C@H](O)[C@@H](O)[C@H](O)[C@H](O)CO)S(=O)(=O)c1ccc(Cl)c(COC2(c3cnccc3-c3ccccc3OC3CC3)CCC2)c1` [Compound I-747, 4-chloro-3-((1-(4-(2-cyclopropoxyphenyl)pyridin-3-yl)cyclobutoxy)methyl)-N-isopropyl-N-(4-(3-((2S,3R,4R,5R)-2,3,4,5,6-pentahydroxyhexyl)ureido)butyl)benzenesulfonamide], less than 100 nM. With `O=C(NC[C@H](O)[C@@H](O)[C@H](O)[C@H](O)CO)c1ccc(CCc2ccc(Cl)c(COC3(c4cnccc4-c4ccccc4OC4CC4)CC3)c2)cn1` [Compound I-748, 5-(4-chloro-3-((1-(4-(2-cyclopropoxyphenyl)pyridin-3-yl)cyclopropoxy)methyl)phenethyl)-N-((2S,3R,4R,5R)-2,3,4,5,6-pentahydroxyhexyl)picolinamide] the figure was less than 100 nM; with `CC(C)N(CCCCNC(=O)N[C@@H](CO)[C@@H](O)[C@H](O)[C@H](O)CO)S(=O)(=O)c1ccc(Cl)c(COC2(c3cnccc3-c3ccccc3OC3CC3)CCOC2)c1` (stereo partly drawn) [Compound I-749, 4-chloro-3-(((3-(4-(2-cyclopropoxyphenyl)pyridin-3-yl)tetrahydrofuran-3-yl)oxy)methyl)-N-isopropyl-N-(4-(3-((2S,3R,4S,5R)-1,3,4,5,6-pentahydroxyhexan-2-yl)ureido)butyl)benzenesulfonamide], less than 100 nM. Regarding `CC(C)N(CCCCNC(=O)NC[C@H](O)[C@@H](O)[C@H](O)[C@H](O)CO)S(=O)(=O)c1ccc(Cl)c(COC2(c3cnccc3-c3ccccc3OC3CC3)CCOC2)c1` (stereo partly drawn) [Compound I-750, 4-chloro-3-(((3-(4-(2-cyclopropoxyphenyl)pyridin-3-yl)tetrahydrofuran-3-yl)oxy)methyl)-N-isopropyl-N-(4-(3-((2S,3R,4R,5R)-2,3,4,5,6-pentahydroxyhexyl)ureido)butyl) benzenesulfonamide], the EC50 is less than 100 nM.

For the compound `CC(C)N(CCCCNC(=O)NC[C@H](O)[C@@H](O)[C@H](O)[C@H](O)CO)S(=O)(=O)c1ccc(Cl)c(CNC2(c3cnccc3-c3ccccc3OC3CC3)CC2)c1` [Compound I-751, 4-chloro-3-(((1-(4-(2-cyclopropoxyphenyl)pyridin-3-yl)cyclopropyl)amino)methyl)-N-isopropyl-N-(4-(3-((2S,3R,4R,5R)-2,3,4,5,6-pentahydroxyhexyl)ureido)butyl) benzenesulfonamide], the EC50 was less than 100 nM. For `CC(OCc1cc(S(=O)(=O)N(CCCCNC(=O)N[C@@H](CO)[C@@H](O)[C@H](O)[C@H](O)CO)C(C)C)ccc1Cl)c1cnccc1-c1ccccc1OC1CC1` (stereo partly drawn) [Compound I-752, 4-chloro-3-((1-(4-(2-cyclopropoxyphenyl)pyridin-3-yl)ethoxy)methyl)-N-isopropyl-N-(4-(3-((2S,3R,4S,5R)-1,3,4,5,6-pentahydroxyhexan-2-yl)ureido)butyl)benzenesulfonamide], the EC50 is less than 100 nM.

Turning to `CC(OCc1cc(S(=O)(=O)N(CCCCNC(=O)NC[C@H](O)[C@@H](O)[C@H](O)[C@H](O)CO)C(C)C)ccc1Cl)c1cnccc1-c1ccccc1OC1CC1` (stereo partly drawn) [Compound I-753, 4-chloro-3-((1-(4-(2-cyclopropoxyphenyl)pyridin-3-yl)ethoxy)methyl)-N-isopropyl-N-(4-(3-((2S,3R,4R,5R)-2,3,4,5,6-pentahydroxyhexyl)ureido)butyl)benzenesulfonamide], the EC50 is less than 100 nM. With `CC(C)N(CCCCNC(=O)N[C@@H](CO)[C@@H](O)[C@H](O)[C@H](O)CO)S(=O)(=O)c1ccc(Cl)c(CNC(C)(C)c2cnccc2-c2ccccc2OC2CC2)c1` [Compound I-754, 4-chloro-3-(((2-(4-(2-cyclopropoxyphenyl)pyridin-3-yl)propan-2-yl)amino)methyl)-N-isopropyl-N-(4-(3-((2S,3R,4S,5R)-1,3,4,5,6-pentahydroxyhexan-2-yl)ureido)butyl) benzenesulfonamide], the EC50 is less than 100 nM. Under `O=C(NCCCCOc1ccc(Cl)c(COC2(c3cnccc3-c3ccccc3OC3CC3)CC2)c1)NC[C@H](O)[C@@H](O)[C@H](O)[C@H](O)CO` [Compound I-755, 1-(4-(4-chloro-3-((1-(4-(2-cyclopropoxyphenyl)pyridin-3-yl)cyclopropoxy)methyl)phenoxy)butyl)-3-((2S,3R,4R,5R)-2,3,4,5,6-pentahydroxyhexyl)urea] stands 126 to 1000 nM.

Turning to `O=C(N[C@@H](CO)[C@@H](O)[C@H](O)[C@H](O)CO)c1cccc(OCc2ccc(Cl)c(COC3(c4cnccc4-c4ccccc4OC4CC4)CC3)c2)c1` [Compound I-756, 3-((4-chloro-3-((1-(4-(2-cyclopropoxyphenyl)pyridin-3-yl)cyclopropoxy)methyl)benzyl)oxy)-N-((2S,3R,4S,5R)-1,3,4,5,6-pentahydroxyhexan-2-yl)benzamide], the EC50 was 126 to 1000 nM.

Consider `Cn1c(C(=O)NC[C@H](O)[C@@H](O)[C@H](O)[C@H](O)CO)cnc1SCc1ccc(Cl)c(COC2(c3cnccc3-c3ccccc3OC3CC3)CC2)c1` [Compound I-758, 2-((4-chloro-3-((1-(4-(2-cyclopropoxyphenyl)pyridin-3-yl)cyclopropoxy)methyl)benzyl)thio)-1-methyl-N-((2S,3R,4R,5R)-2,3,4,5,6-pentahydroxyhexyl)-1H-imidazole-5-carboxamide], for which the EC50 is 126 to 1000 nM. With `Cn1c(C(=O)N[C@@H](CO)[C@@H](O)[C@H](O)[C@H](O)CO)cnc1SCc1ccc(Cl)c(COC2(c3cnccc3-c3ccccc3OC3CC3)CC2)c1` [Compound I-759, 2-((4-chloro-3-((1-(4-(2-cyclopropoxyphenyl)pyridin-3-yl)cyclopropoxy)methyl)benzyl)thio)-1-methyl-N-((2S,3R,4S,5R)-1,3,4,5,6-pentahydroxyhexan-2-yl)-1H-imidazole-5-carboxamide] the figure was 126 to 1000 nM; with `O=C(NCCCCCOc1ccc(Cl)c(COC2(c3cnccc3-c3ccccc3OC3CC3)CC2)c1)N[C@@H](CO)[C@@H](O)[C@H](O)[C@H](O)CO` [Compound I-760, 1-(5-(4-chloro-3-((1-(4-(2-cyclopropoxyphenyl)pyridin-3-yl)cyclopropoxy)methyl)phenoxy)pentyl)-3-((2S,3R,4S,5R)-1,3,4,5,6-pentahydroxyhexan-2-yl)urea], 126 to 1000 nM. `CC(C)CN(CCCCNC(=O)N[C@@H](CO)[C@@H](O)[C@H](O)[C@H](O)CO)S(=O)(=O)c1ccc(Cl)c(COC2(c3cnccc3-c3ccccc3OC3CC3)CC2)c1` [Compound I-761, 4-chloro-3-((1-(4-(2-cyclopropoxyphenyl)pyridin-3-yl)cyclopropoxy)methyl)-N-isobutyl-N-(4-(3-((2S,3R,4S,5R)-1,3,4,5,6-pentahydroxyhexan-2-yl)ureido)butyl)benzenesulfonamide]: the EC50 was less than 100 nM.

Values taken from patent US12084472B2 (Ardelyx, Inc., priority 2015, dated 2024).
